Experimental data: article PMC10406726, “Development, scrutiny, and modulation of transient reporter gene assays of the xenobiotic metabolism pathway in zebrafish hepatocytes” (Cell Biology and Toxicology, 2021)
Like-named read-outs stand apart in the source and are kept apart here.

What was measured:
[1] = target: ATAD5 (ATPase family, AAA domain containing 5); set-up: method as in ToxCast database, CompTox dashboard; conditions: TOX21_ELG1_LUC_Agonist; ref ToxCast database, CompTox dashboard; cited from earlier work
[2] = target: VDR (vitamin D (1,25-dihydroxyvitamin D3) receptor); set-up: method as in ToxCast database, CompTox dashboard; conditions: ATG_VDRE_CIS_up; ref ToxCast database, CompTox dashboard; cited from earlier work
[3] = test system: AHR (aryl hydrocarbon receptor); set-up: method as in ToxCast database, CompTox dashboard; conditions: ATG_Ahr_CIS_up; ref ToxCast database, CompTox dashboard; cited from earlier work
[4] = target: GLI3 (DNA binding); set-up: method as in ToxCast database, CompTox dashboard; conditions: TOX21_SSH_3T3_GLI3_Agonist; ref ToxCast database, CompTox dashboard; cited from earlier work
[5] = target: ESR1 (estrogen receptor 1); set-up: method as in ToxCast database, CompTox dashboard; conditions: ATG_ERE_CIS_up; ref ToxCast database, CompTox dashboard; cited from earlier work
[6] = test system: Nrf2 transcription factor activation (Nrf2/Keap1/ARE); assay: Nrf2-responsive transient DLR reporter gene assay (pGL4.37 + pRL-CMV) in ZFL cells; type: cell-based, zebrafish (Danio rerio); conditions: for EC50: 4PL regression, normalized induction
Text: A transient reporter gene assay for the assessment of oxidative stress in the ZFL cell line had been described previously (Lungu-Mitea and Lundqvist [2020]), and was applied here in an identical manner. Please consult the respective chapter within the SI for more details.
ZFL cells were also transiently co-transfected with the Nrf2-responsive reporter vector pGL4.37 and the normalization vector pRL-CMV, as described in (Lungu-Mitea and Lundqvist [2020]). The transcription factor Nrf2 is a central regulator of the oxidative stress response pathways (Nrf2/Keap1/ARE) (Itoh et al. [2004]) and a keystone in the regulation of oxidative stress detoxification, metabolism, and induction of related phase-II enzymes (e.g., GST, NQO1, HO-1). Detailed descriptions, results, and discussion are given in the respective section of the SI (p. 12–14; Figs. S10 + 11, Table S4). […]
(§1) 132 To undermine the “maisonette” squelching hypothesis, Comptox data regarding the induction of cellular
(§2) 133 stress response pathways were backed up by empirical data in ZFL cell lines. Therefore, ZFL cells were
(§3) 134 transiently co-transfected with the Nrf2-responsive reporter vector pGL4.37 and the normalization
(§4) 135 vector pRL-CMV, as described in (Lungu-Mitea and Lundqvist 2020). Experimental design, data
(§5) 136 handling, and statistical evaluation were identical to procedures described in the main manuscript. The
137 transcription factor Nrf2 is a central regulator of the oxidative stress response pathways
138 (Nrf2/Keap1/ARE) (Itoh et al. 2004) and a keystone in the regulation of oxidative stress detoxification,
139 metabolism, and induction of related phase-II enzymes (e.g. GST, NQO1, HO-1).
141 S10). […] Statistically
143 of the Nrf2-related luciferase signal.
144 optical inspection under the microscope ( not illustrated), leading to artefact effects in the luciferase
145 measurement. Therefore, specific points were excluded from the analysis and deemphasized in fig. S10.
146 Possibly, compound aggregation led to a flattening of the cytotoxicity curve in fig. S10. Compound
147 aggregation at higher molar concentratio ns has been discussed in (Owen et al. 2012, 2014) .
148 Concentrations up to cytotoxicity were used to derive a sigmoidal concentration -response relationship
149 (fig. S11). The computed parameters are depicted in tab. S4.

[7] = Optical inspection under the microscope for crystalized aggregates in exposure medium; type: physicochemical; conditions: BNF in exposure medium, ZFL cell culture
Text: TOX21_ARE_BLA_agonist_ratio NFE2L2 nuclear factor, 0.985 DNA binding
ATG_ERE_CIS_up ESR1 estrogen receptor 1 1.06 nuclear receptor
TOX21_ARE_BLA_Agonist_ch2 – – 1.22 channel 2
ATG_PXRE_CIS_up NR1I2 nuclear receptor 2.24 nuclear receptor
ATG_ERa_TRANS_up ESR1 estrogen receptor 1 2.86 nuclear receptor
TOX21_AR_LUC_MDAKB2_Ago AR androgen receptor 3.69 nuclear receptor
ATG_VDRE_CIS_up VDR vitamin D (1,25- 4.28 nuclear receptor
TOX21_AhR_LUC_Agonist AHR aryl hydrocarbon 4.44 DNA binding
TOX21_ERa_LUC_VM7_Agonist ESR1 estrogen receptor 1 5.15 nuclear receptor
TOX21_AR_LUC_MDAKB2_Ago AR androgen receptor 5.43 nuclear receptor
TOX21_CAR_Agonist NR1I3 nuclear receptor 6.07 nuclear receptor
ATG_PXR_TRANS_up NR1I2 nuclear receptor 6.58 nuclear receptor
as §1, §2, §3, §4, §5
137 transcription factor Nrf2 is a central regulator of the oxidative stress response pathways […]

[8] = test system: AHR (aryl hydrocarbon receptor); set-up: method as in ToxCast database, CompTox dashboard; conditions: TOX21_AhR_LUC_Agonist; ref ToxCast database, CompTox dashboard; cited from earlier work
[9] = test system: NFE2L2 (nuclear factor, erythroid 2-like 2); set-up: method as in ToxCast database, CompTox dashboard; conditions: TOX21_ARE_BLA_agonist_ratio; ref ToxCast database, CompTox dashboard; cited from earlier work
[10] = test system: ARE (channel 1); set-up: method as in ToxCast database, CompTox dashboard; conditions: TOX21_ARE_BLA_Agonist_ch1; ref ToxCast database, CompTox dashboard; cited from earlier work
[11] = target: ESRRA (estrogen-related receptor alpha); set-up: method as in ToxCast database, CompTox dashboard; conditions: TOX21_PGC_ERR_Agonist; ref ToxCast database, CompTox dashboard; cited from earlier work
[12] = test system: NR1I2 (nuclear receptor subfamily 1, group I, member 2); set-up: method as in ToxCast database, CompTox dashboard; conditions: ATG_PXRE_CIS_up; ref ToxCast database, CompTox dashboard; cited from earlier work
[13] = target: AR (androgen receptor); set-up: method as in ToxCast database, CompTox dashboard; conditions: TOX21_AR_LUC_MDAKB2_Agonist_3uM_Nilutamide; ref ToxCast database, CompTox dashboard; cited from earlier work
[14] = target: HDAC (hydrolase); set-up: method as in ToxCast database, CompTox dashboard; conditions: TOX21_HDAC_Inhibition; ref ToxCast database, CompTox dashboard; cited from earlier work

O=c1cc(-c2ccccc2)oc2ccc3ccccc3c12 [BNF, β-naphthoflavone]
AC50 [1]: 47.4 nM | AC50 [2]: 4280 nM | AC50 [3]: […] | AC50 [4]: 33.9 nM | AC50 [5]: 1060 nM | LOEC of Nrf2 induction ([6]; BNF exposure range of 3 pM to 1 mM, pGL4.37 + pRL-CMV): 30 nM | Slope (CI) of 4PL regression ([6]; BNF, pGL4.37 + pRL-CMV): 0.77 (0.43-1.62) | concentration of maximal Nrf2 induction ([6]; BNF, pGL4.37 + pRL-CMV (Fig. S10)): […] | EC50 ([6]; BNF, pGL4.37 + pRL-CMV): 9.7 nM | EC50 ([6]; Danio rerio, BNF, pGL4.37 + pRL-CMV): 9.68 nM | maximal Nrf2 induction ([6]; at 100 nM BNF, pGL4.37 + pRL-CMV): 3.4 fold | concentration above which crystalized aggregates were encountered [7]: […] | AC50 [8]: […] | AC50 [9]: 985 nM | AC50 [10]: 837 nM | AC50 [11]: 189 nM | AC50 [12]: 2240 nM | AC50 [13]: 3690 nM | AC50 [14]: 513 nM
